# Laboratory results from patent US9499530B2 (HANGZHOU MINSHENG INSTITUTES FOR PHARMA RESEARCH, priority 2011, dated 2016).
# Entries after “also recorded” stand apart in the source; their conditions may differ.
# How the values were obtained:
# [1] = system: NCI-H1975 xenograft; assay: Growth inhibition of NCI-H1975 xenograft in nude mice; type: in vivo; details: for T/C (%) / Tumor volume (mm^3) D 28: 5 consecutive days weekly for four weeks, D 28; for activity against NC1-H1975 (in words): tumor line with gene mutation, resistant to lapatinib
# Experimental: Administration route: intragastric administration. Administration volume: 0.1 ml/10 g. Administration and frequency: administrating for 5 consecutive days and suspending administration for two days weekly for four weeks. Observation time: continuous observation for 28 days after starting administration. The tumor volume was measured twice a week. At the end of the experiment, the animals were sacrificed, weighed and photographed. Statistical method: SPSS 10.0 statistical software package, one-factor analysis of variance.
# [2] = target: EGFR (Epidermal Growth Factor Receptor 1) (Homo sapiens, UniProt P00533); assay: ELISA protein tyrosine kinase inhibition, EGFR; type: biochemical; details: for IC50: ELISA, Poly(Glu, Tyr) 4:1 substrate, ATP 5 μM, test samples at 10-5 mol/l, read-out: EGFR inhibitory activity (IC50 class)
# From the text: (§1) Determining the Effect of Test Samples at a Concentration of 10-5 Mol/l on the Activity of the Substrate Phosphoryation Catalyzed by EGFR (Epidermal Growth Factor Receptor 1), ErbB-2 (Epidermal Growth Factor Receptor 2), ErbB-4, KDR (Vascular Endothelial Growth Factor Receptor 2) Protein Tyrosine Kinases at Molecular Level
# (§2) Enzyme-Linked Immunosorbent Assay (ELISA)
# (§3) Main instrument: wavelength-tunable microplate reader (VERSAmax).
# (§4) Main reagents: kinase reaction substrate Poly(Glu, Tyr) 4:1 from Sigma; anti-phosphotyrosine monoclonal antibody PY99 from Santa Cruz; horseradish peroxidase-labeled goat anti-mouse IgG from Calbiochem; ATP, DTT, OPD from Amresco, and ELISA plate from Corning.
# (§5) Poly(Glu, Tyr)4:1 as an enzyme substrate was diluted by potassium ion-free PBS into 20 μg/ml, and an ELISA plate was coated and subjected to reaction for 12-16 h at 37° C. After the liquid in wells was removed, the plate was washed three time by T-PBS, 5 min for each time. The ELISA plate was then dried in an oven at 37° C. The coated wells were added with the test samples: the test samples were prepared for a stock solution with a concentration of 1×10^−2M in DMSO. The aliquot solution was stored at −20° C., and diluted to the desired concentration with reaction buffer before use. The resulting solution was added into the wells so that the final concentration of 10-5 mol/l in 100 μL reaction system can be obtained. At the same time, a positive control well was set up and a positive control compound Su11248 was added. ATP and test tyrosine kinases were added: ATP solution diluted with reaction buffer was added (the final concentration of ATP is 5 μM). Finally, the test tyrosine kinases solution diluted with reaction buffer was added. The total volume of the reaction system was […]. Meanwhile, a negative control well and a control well without enzyme were set up. The reaction system was placed in a wet box, and shaked for 1 hour at 37° C., shielding from light. After the reaction was complete, the plate was washed by T-PBS three times. Antibody PY99 was added at 100 μL/well; and the plate was shaked for 30 min at 37° C. After the reaction was complete, the plate was washed with T-PBS three times. Horseradish peroxidase-labeled goat anti-mouse IgG was added at 100 μL/well, and the plate was shaked for 30 min at 37° C. The plate was washed with T-PBS three times. OPD developing liquid was added at 100 μL/well, and reacted for 1-10 min at room temperature, shielding from light. 50 μL of 2 M H2SO4 was added to stop the reaction. A492 value was determined using wavelength-tunable microplate reader. The inhibition ratio of the samples can be calculated by the following equation: […]
# [3] = target: KDR (Vascular Endothelial Growth Factor Receptor 2) (Homo sapiens, UniProt P35968); assay: ELISA protein tyrosine kinase inhibition, KDR; type: biochemical; details: for IC50: ELISA, Poly(Glu, Tyr) 4:1 substrate, ATP 5 μM, test samples at 10-5 mol/l, read-out: KDR inhibitory activity (IC50 class)
# From the text: as §1, §2, §3, §4, §5
# [4] = target: ErbB-2 (Epidermal Growth Factor Receptor 2) (Homo sapiens, UniProt P04626); assay: ELISA protein tyrosine kinase inhibition, ErbB-2; type: biochemical; details: Poly(Glu, Tyr) 4:1 substrate, ATP 5 μM, test samples at 10-5 mol/l, read-out: ErbB2 inhibitory activity (IC50 class)
# From the text: as §1, §2, §3, §4, §5
# [5] = target: ErbB-4 (Homo sapiens, UniProt Q15303); assay: ELISA protein tyrosine kinase inhibition, ErbB-4; type: biochemical; details: for IC50: ELISA, Poly(Glu, Tyr) 4:1 substrate, ATP 5 μM, test samples at 10-5 mol/l, read-out: ErbB4 inhibitory activity (IC50 class)
# From the text: as §1, §2, §3, §4, §5
# [6] = system: human lung cancer A549 xenograft; assay: Growth inhibition of A549 xenograft in nude mice; type: in vivo; details: for TV (mm^3) End / TV (mm^3) Start / T/C (%): A549 xenograft; for TV (mm^3) End / TV (mm^3) Start / T/C (%) / Weight (g) End / Weight (g) Start: 200 mg/kg intragastric; for TV (mm^3) End / T/C (%) / Weight (g) End: 5 times per week for four weeks; for TV (mm^3) Start / Weight (g) Start: start of dosing; for T/C (%): relative tumor growth ratio; for Weight (g) End / Weight (g) Start: nude mice with A549 xenograft
# From the text: Objective of the test: Determining the inhibition of some compounds of the present invention to the growth of human lung cancer A549 transplanted into nude mice and the action intensity thereof.
# 1. Human lung cancer A549 xenograft in nude mice, which was set up by subcutaneously transplantion of the human lung cancer A549 cell lines into right axillary fossa of nude mice. The amount of inoculation is 2×10^6 cells/mouse. Xenograft inoculated into the nude mice was passaged for 3 generations before use.
# 2. The solvent used in the experiments is: 0.5% of hydroxypropylmethyl cellulose and 0.1% of Tween-80.
# 3. Vigorous growing tumor tissues were selected to be chopped into approximately 1 mm^3. Under sterile conditions, the tumor tissue blocks were subcutaneously transplanted into right axillary fossa of nude mice. The diameters of the xenograft in nude mice were measured with a vernier caliper. When tumors reached approximately 100-300 mm^3 in size, the animals were randomly divided into groups, wherein there are 12 animals in solvent control group, and 6 animals per group in the other groups. […] The administered dosages were both 200 mg/kg, 5 times per week for consecutive four weeks. The diameters of the tumors were measured twice per week. The negative control group was intragastricly administrated the same amount of solvent. After the experiment, the mice were sacrificed. The tumors were surgically stripped and weighed. The tumor volume (TV) was calculated by the following equation:
# [formula] in which a and b represents for the length and the width respectively.
# According to the measured results, the relative tumor volume (RTV) was calculated. The calculation equation was: RTV=Vt/V0, wherein V0 is the tumor volume measured during cage administration (i.e. d0), Vt is the tumor volume of each measurement. The evaluation index of anti-tumor activity was the relative tumor growth ratio T/C (%), which was calculated by the following equation: […]
# TRTV: treatment group's RTV; CRTV: negative control group's RTV.
# [7] = NC1-H1975 xenograft, intragastric
# Sequence of ErbB-4 (Q15303 26-1308): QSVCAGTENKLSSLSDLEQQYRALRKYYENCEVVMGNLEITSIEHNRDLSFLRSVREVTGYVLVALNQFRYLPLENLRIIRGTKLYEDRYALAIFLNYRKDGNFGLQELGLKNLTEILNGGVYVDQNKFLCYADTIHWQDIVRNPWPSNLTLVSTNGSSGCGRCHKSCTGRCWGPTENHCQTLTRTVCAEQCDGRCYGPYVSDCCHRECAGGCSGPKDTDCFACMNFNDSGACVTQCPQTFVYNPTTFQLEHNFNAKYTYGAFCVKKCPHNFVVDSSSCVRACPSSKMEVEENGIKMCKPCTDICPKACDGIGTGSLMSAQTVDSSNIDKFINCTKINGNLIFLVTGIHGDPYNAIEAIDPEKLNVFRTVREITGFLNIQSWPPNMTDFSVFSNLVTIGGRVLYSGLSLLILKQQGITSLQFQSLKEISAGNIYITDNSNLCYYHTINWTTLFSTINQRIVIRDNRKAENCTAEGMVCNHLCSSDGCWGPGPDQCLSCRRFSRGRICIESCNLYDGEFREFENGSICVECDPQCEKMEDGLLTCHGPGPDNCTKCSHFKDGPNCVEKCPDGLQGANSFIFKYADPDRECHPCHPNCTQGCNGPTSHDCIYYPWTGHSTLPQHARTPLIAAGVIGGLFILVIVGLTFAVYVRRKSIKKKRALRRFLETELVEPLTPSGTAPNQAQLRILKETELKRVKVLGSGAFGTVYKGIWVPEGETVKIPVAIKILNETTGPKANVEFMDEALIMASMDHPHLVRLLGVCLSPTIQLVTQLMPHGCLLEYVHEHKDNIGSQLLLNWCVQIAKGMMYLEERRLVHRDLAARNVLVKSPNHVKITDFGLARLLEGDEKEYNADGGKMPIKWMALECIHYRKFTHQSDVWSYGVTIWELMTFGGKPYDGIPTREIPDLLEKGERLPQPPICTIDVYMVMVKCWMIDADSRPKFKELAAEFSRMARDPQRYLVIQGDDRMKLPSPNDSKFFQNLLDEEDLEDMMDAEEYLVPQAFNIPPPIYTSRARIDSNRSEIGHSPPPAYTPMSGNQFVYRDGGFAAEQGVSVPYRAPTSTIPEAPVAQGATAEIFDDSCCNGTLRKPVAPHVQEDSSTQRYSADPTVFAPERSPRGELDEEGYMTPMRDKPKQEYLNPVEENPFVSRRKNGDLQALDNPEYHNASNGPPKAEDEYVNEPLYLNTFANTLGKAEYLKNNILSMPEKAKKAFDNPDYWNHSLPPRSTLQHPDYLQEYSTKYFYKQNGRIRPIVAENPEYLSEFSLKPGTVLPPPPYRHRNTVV
# Sequence of KDR (Vascular Endothelial Growth Factor Receptor 2) (P35968 20-1356): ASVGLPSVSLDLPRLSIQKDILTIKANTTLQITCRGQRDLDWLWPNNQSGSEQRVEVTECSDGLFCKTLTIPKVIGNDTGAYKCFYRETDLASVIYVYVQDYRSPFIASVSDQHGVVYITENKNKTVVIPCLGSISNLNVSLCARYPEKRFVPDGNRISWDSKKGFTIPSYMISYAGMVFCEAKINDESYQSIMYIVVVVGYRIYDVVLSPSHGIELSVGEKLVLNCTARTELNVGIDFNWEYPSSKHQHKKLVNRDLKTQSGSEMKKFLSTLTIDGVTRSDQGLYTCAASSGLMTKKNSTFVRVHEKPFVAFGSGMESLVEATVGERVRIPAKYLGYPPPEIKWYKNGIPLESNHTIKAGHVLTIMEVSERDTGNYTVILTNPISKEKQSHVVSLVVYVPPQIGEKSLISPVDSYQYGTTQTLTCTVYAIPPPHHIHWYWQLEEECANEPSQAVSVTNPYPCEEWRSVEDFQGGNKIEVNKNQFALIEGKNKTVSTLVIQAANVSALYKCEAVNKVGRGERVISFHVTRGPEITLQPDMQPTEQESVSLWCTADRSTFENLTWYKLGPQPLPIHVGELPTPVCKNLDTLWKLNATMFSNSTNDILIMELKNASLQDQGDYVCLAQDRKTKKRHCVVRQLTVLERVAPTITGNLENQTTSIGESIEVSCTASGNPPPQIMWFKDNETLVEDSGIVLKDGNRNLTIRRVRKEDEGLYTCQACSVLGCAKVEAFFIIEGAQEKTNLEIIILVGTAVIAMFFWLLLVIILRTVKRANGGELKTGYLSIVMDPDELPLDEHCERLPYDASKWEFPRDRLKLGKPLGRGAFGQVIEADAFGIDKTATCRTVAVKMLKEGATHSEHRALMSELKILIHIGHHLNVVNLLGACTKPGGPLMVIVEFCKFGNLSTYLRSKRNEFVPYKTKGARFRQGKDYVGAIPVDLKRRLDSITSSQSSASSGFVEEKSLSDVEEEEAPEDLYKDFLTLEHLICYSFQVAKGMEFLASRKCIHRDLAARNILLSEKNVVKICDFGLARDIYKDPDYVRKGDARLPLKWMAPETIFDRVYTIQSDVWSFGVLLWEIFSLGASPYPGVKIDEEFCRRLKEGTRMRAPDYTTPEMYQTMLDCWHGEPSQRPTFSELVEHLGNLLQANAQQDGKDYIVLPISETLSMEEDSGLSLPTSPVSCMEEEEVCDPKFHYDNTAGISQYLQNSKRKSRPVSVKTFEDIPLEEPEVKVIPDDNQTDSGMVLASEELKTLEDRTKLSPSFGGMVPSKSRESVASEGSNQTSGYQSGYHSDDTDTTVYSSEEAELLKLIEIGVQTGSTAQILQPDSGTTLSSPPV
compound,measurement,setting,value
COc1cc2ncnc(Nc3ccc(F)c(Cl)c3)c2cc1OCCCN1CCOCC1 [Gefitinib],T/C (%),[1]; [7],87.89%
same,Tumor volume (mm^3) D 28,[1]; [7],2164.44 ± 1064.85 mm^3
same,activity against NC1-H1975 (in words),[1],almost no activity
"OCCCNCc1ccc(-c2ccc3ncnc(Nc4ccc(OCc5cccc(F)c5)c(Cl)c4)c3c2)o1 [MS42·di-p-toluenesulfonate, N-(3-chloro-4-((3-fluorobenzyl)oxy)phenyl)-6-(5-(((3-hydroxypropyl)amino)methyl)-2-furyl)-4-quinazolinamine]",IC50,[2],< 10 µM
same,IC50,[3],< 10 µM
same,IC50,[4],< 10 µM
same,IC50,[5],< 10 µM
N-(3-chloro-4-((3-fluorobenzyl)oxy)phenyl)-6-(5-((morpholinyl)methyl)-2-thienyl)-4-quinazolinamine [MS 33],inhibitory activity against EGFR (in words),[2],better inhibitory activity
same,IC50,[2],< 10 µM
same,IC50,[3],> 10 µM
same,IC50,[4],> 10 µM
same,inhibition of c-ErbB4/HER4 (in words),[5],very good inhibition
same,IC50,[5],< 10 µM
"OCC(CO)NCc1ccc(-c2ccc3ncnc(Nc4ccc(OCc5cccc(F)c5)c(Cl)c4)c3c2)o1 [MS6·dimethanesulfonate, N-(3-chloro-4-((3-fluorobenzyl)oxy)phenyl)-6-((5-(2-(1,3-dihydroxypropyl)amino)methyl)-2-furyl)-4-quinazolinamine]",IC50,[2],< 10 µM
same,IC50,[3],< 10 µM
same,TV (mm^3) End,[6],844.5 ± 240.3^▴ mm^3
same,TV (mm^3) Start,[6],156.9 ± 64.5 mm^3
same,T/C (%),[6],39.3%
same,Weight (g) End,[6],25.2 ± 1.4 g
same,Weight (g) Start,[6],24.9 ± 1.3 g
same,IC50,[4],< 10 µM
same,IC50,[5],< 10 µM
"OCCNCc1ccc(-c2ccc3ncnc(Nc4ccc(OCc5cccc(F)c5)c(Cl)c4)c3c2)o1 [MS27·dimethanesulfonate, N-(3-chloro-4-((3-fluorobenzyl)oxy)phenyl)-6-(5-(((2-hydroxyethyl)amino)methyl)-2-furyl)-4-quinazolinamine]",IC50,[2],< 10 µM
same,IC50,[3],< 10 µM
same,TV (mm^3) End,[6],775.6 ± 215.4^▴ mm^3
same,TV (mm^3) Start,[6],155.3 ± 71.2 mm^3
same,T/C (%),[6],36.4%
same,Weight (g) End,[6],25.6 ± 2.2 g
same,Weight (g) Start,[6],25.0 ± 2.7 g
same,IC50,[4],< 10 µM
same,IC50,[5],< 10 µM
same,T/C (%),[1]; [7],49.8^★ %
same,Tumor volume (mm^3) D 28,[1]; [7],1214.25 ± 944.16^★ mm^3
same,Tumor volume (mm^3) D 0,"[1]; NC1-H1975 xenograft, intragastric, D 0",97.06 ± 38.91 mm^3
same,activity against NC1-H1975 (in words),[1],good activity
"CS(=O)(=O)CCNCc1ccc(-c2ccc3ncnc(Nc4ccc(OCc5cccc(F)c5)c(Cl)c4)c3c2)o1 [Lapatinib, lapatinib, reference compound]",TV (mm^3) End,[6],943.2 ± 225.7^▴ mm^3
same,TV (mm^3) Start,[6],153.6 ± 64.8 mm^3
same,Weight (g) End,[6],26.3 ± 3.3 g
same,Weight (g) Start,[6],24.1 ± 2.9 g
same,T/C (%),[1]; [7],104.26%
same,Tumor volume (mm^3) D 28,[1]; [7],2420.50 ± 1405.01 mm^3
"O=C(O)CCC(NCc1ccc(-c2ccc3ncnc(Nc4ccc(OCc5cccc(F)c5)c(Cl)c4)c3c2)o1)C(=O)O (centres unmarked) [MS 23, N-(3-chloro-4-((3-fluorobenzyl)oxy)phenyl)-6-(5-(((1,3-dicarboxypropyl)amino)methyl)-2-furyl)-4-quinazolinamine]",IC50,[2],< 10 µM
same,inhibitory activity against KDR (in words),[3],better inhibitory activity; also recorded: higher inhibitory activity
same,IC50,[3],< 10 µM
same,TV (mm^3) End,[6],804.3 ± 230.3^▴ mm^3
same,TV (mm^3) Start,[6],153.5 ± 74.8 mm^3
same,T/C (%),[6],38.2%
same,Weight (g) End,[6],25.7 ± 2.0 g
same,Weight (g) Start,[6],25.3 ± 1.5 g
same,growth inhibition of human lung cancer A549 compared with positive control lapatinib (in words),"[6]; xenograft in nude mice, 200 mg/kg",better effective inhibition; also recorded: better growth inhibition effect
same,IC50,[4],< 10 µM
same,IC50,[5],< 10 µM
"OCCN(CCO)Cc1ccc(-c2ccc3ncnc(Nc4ccc(OCc5cccc(F)c5)c(Cl)c4)c3c2)o1 [MS18·dimethanesulfonate, N-(3-chloro-4-((3-fluorobenzyl)oxy)phenyl)-6-(5-((bis(2-hydroxyethyl)amino)methyl)-2-furyl)-4-quinazolinamine]",IC50,[2],< 10 µM
same,IC50,[3],< 10 µM
same,IC50,[4],< 10 µM
same,IC50,[5],< 10 µM
